Patent EP4733301A1 (priority 2023, dated 2025)

Assays:
[1] = X-ray-induced release of coumarin reporter 7-Deacca from Compounds 1-9 in phosphate buffer (UPLC-MS); format: physicochemical; settings: for release efficiency (in words): NAP esters; for reactivity to radiation reduction: ortho-/para-substituted esters versus meta-substituted ones (Compounds 2, 5, 8); for release efficiency in KNO3 solution relative to control: 10 mM KNO3 added
Protocol: (§1) Pretreated solution (approx. 1-2 mL) was sealed in glass vials with rubber stoppers and metal caps. All tubular radiation experiments were pretreated using the freeze-thaw method to remove dissolved oxygen from the solution. The solution was frozen, then vacuum was applied for several minutes until thawed to room temperature.
X-ray irradiation was performed using an X-ray generator (RS2000 Pro 225, 225 kV, 17.7 mA; Rad Source Technologies, Inc).
(§2) Tubes were irradiated with X-rays, with a total dose of 0-60 Gy, at a rate of 2 Gy/min. Cells were irradiated with X-rays at different doses at a rate of 2 Gy/min.
• 1. Standard preparation and calibration curves. The standard (coumarin, MeRho or MMAE) was dissolved in DMSO solution to make a 10 mM stock solution. The stock was diluted with deionized water to obtain solutions of suitable concentration gradients. These standard solutions were analyzed by UPLC-MS to generate calibration curves for the respective standard compounds. The peak areas of the target compounds were within the linear range of the curves. The relative standard deviation for duplicate injections of each standard solution was less than 5.0%. • 2. Analysis and calculation. After different treatments, the reaction mixtures were analyzed by ultra-performance liquid chromatography-mass spectrometry. The amount of cargo was calculated as equivalents of their respective external standard.
(§3) As a representative example, the detailed procedure for X-ray-induced reduction of Compound 1 is described below. A stock solution of Compound 1 (10 mM in DMSO) was diluted in PB (0.02 M, pH 7.4) to a final concentration of 10 µM. Solutions were deoxygenated using the aforementioned deoxygenation step prior to X-ray irradiation from 0 to 60 Gy. Reaction mixtures were analyzed using UPLC and a fluorescence spectrometer, and amount of product release was quantified via standard curves.
(§4) The elution program for Compounds 1-9 and NAPC-MeRho was Method a: H2O + 5% ACN (0 min)-95% H2O + 5% ACN (0.2 min)-5% H2O + 95% ACN (2.8 min)-5% H2O + 95% ACN (2.9 min)-95% H2O + 5% ACN (3.0 min)-95% H2O + 5% ACN (4.0 min). Injection volume: 10 µL.
10 mM KNO3 was added to the radiation system of Compound 1 (10 µM, in PB, pH 7.4) Reactivity test (10 µM, 0.1% DMSO): Determination of 7-Deacca release in PB (20 mM, pH 7.4) after deoxygenation and 60 Gy X-ray irradiation. Encouragingly, UPLC-MS detected coumarin release (FIG. 32), with a release efficiency of 33.5 ± 9.1% (FIG. 4), resulting in 55.8 nM/Gy.
7-Deacca was designed to be protected by a series of molecules Compounds 2-9 with pyridyl, quinolinyl, and N-methylpyridyl groups. Stock solutions of Compounds 2-9 (10 mM in DMSO) were diluted in PB (10 µM, 0.1% DMSO), then irradiated with 60 Gy X-rays, and analyzed by UPLC-MS to determine the yield of free 7-Deacca (FIG. 35).
10 mM HCOONa or KNO3 was added to the radiation system of Compound 7 (10 µM, in PB, pH 7.4). […] It can be explained that radicalized HCOONa in water reacts with ·OH and hydrogen radicals (·H) to generate carboxylate radicals […], which is another reducing agent with a standard electrode potential of -1.90 V, which may also be a possible explanation for the difference in its radiation reduction efficiency. Compared to the quinolinyl moiety with higher electron density (lower reduction potential), the positive charge on the pyridyl moiety with lower electron density (higher reduction potential) has higher affinity for the negatively charged e^-aq, resulting in the highest radiation reduction efficiency among them for the pyridyl moiety.

[2] = X-ray-induced AMC release from Compound 10 in PB (UPLC); format: physicochemical; settings: 10 µM, 0.02 M PB pH 7.4, 0-60 Gy
Protocol: as §1, §2, §3
(§5) Method B was used for elution of Compound 10, mixtures of Compound 7 with other RPGs, and mixtures of Compound 10 with other rpg: 95% H2O + 5% ACN (0 min)-95% H2O + 5% ACN (0.2 min)-70% H2O + 30% ACN (3.0 min)-70% H2O + 30% ACN (3.6 min)-95% H2O + 5% ACN (3.7 min)-95% H2O + 5% ACN (5.0 min). Injection volume: 10 µL.
The inventors synthesized Compound 10 (NAPC-AMC) containing NAP-protected 7-amino-4-methylcoumarin (AMC). […]

[3] = Competition reaction of Compound 10 with prior-art RPGs (Compounds 11, 12, 13) under 60 Gy X-ray; format: physicochemical; settings: each component 10 µM in PB pH 7.4, deoxygenated, versus Compounds 11, 12, 13
Protocol: as §5
The inventors mixed the reported RPGs with Compound 10, providing solutions of [10+11], [10+12], [10+13], respectively (each component: 10 µM in PB, pH 7.4). The solutions were deoxygenated and irradiated with 60 Gy X-rays, and their release efficiencies were analyzed by UPLC-MS (FIG. 11) and summarized in FIG. 12. The lower part of the bars and the upper part of the bars represent the activation ratio of Compound 10 and each competing component in the irradiation system, respectively.

[4] = X-ray-induced MeRho release from NAPC-MeRho in PB (fluorescence, UPLC); format: physicochemical; settings: 10 µM, gradient dose 0 to 60 Gy
Protocol: as §3, §4
The inventors performed proof-of-concept for a radiation-responsive fluorescent probe NAPC-MeRho (FIG. 13), designed for quantitative analysis of radiation-induced release. […] Under physiological conditions, irradiating 10 µM NAPC-MeRho with a gradient dose from 0 to 60 Gy caused fluorescence intensity to increase in a linear manner (FIG. 14 and FIG. 15), and UPLC spectra determined a G-value for MeRho release of 140 nM/Gy (FIG. 15). To test whether the radiation reduction reaction can occur in living cells without interference, stability to biological reducing agents and cytotoxicity to different cell lines were evaluated. […]

[5] = format: physicochemical
Protocol: 20 µM NAPC-MeRho was mixed with an equal volume of 2 mM sodium ascorbate solution, incubated and detected at different time points using a fluorescence spectrometer and UPLC-MS. Stability test results in cysteine and γ-glutathione solutions were the same.
(§6) The inventors performed proof-of-concept for a radiation-responsive fluorescent probe NAPC-MeRho (FIG. 13), designed for quantitative analysis of radiation-induced release. The NAPC linker selectively responds to e^-aq generated by X-rays, where C-O bond cleavage of the carbamate occurs, followed by decarboxylation to release fluorescent MeRho (FIG. 13). Under physiological conditions, irradiating 10 µM NAPC-MeRho with a gradient dose from 0 to 60 Gy caused fluorescence intensity to increase in a linear manner (FIG. 14 and FIG. 15), and UPLC spectra determined a G-value for MeRho release of 140 nM/Gy (FIG. 15). To test whether the radiation reduction reaction can occur in living cells without interference, stability to biological reducing agents and cytotoxicity to different cell lines were evaluated. […] VcNa at pH 7.4, and cell viability with 10 µM NAPC-MeRho was greater than 95%.

[6] = test system: 4T1-FAP, HT1080-FAP and U87-MG cells; format: cell-based; settings: 10 µM NAPC-MeRho, different cell lines
Protocol: as §6
Cell viability was assessed using CCK-8 assay. Each experiment was performed in triplicate. […] Incubated at 37 °C, 5% CO2 for 2 hours, absorbance was measured at 450 nm. The absorbance of treated cells was compared to that of the control group, whose viability was set at 100%.

4T1-FAP cells = assay: Confocal fluorescence imaging of radiation-induced MeRho release in cells; format: cell-based, Mouse; settings: 10 µM
Protocol: (§7) Typically, cells were seeded at a density of 2×10^5 cells/mL in 35-mm confocal dishes and cultured under hypoxic conditions in an incubator containing 5% CO2 at 37 °C for 24 hours. A stock solution of NAPC-MeRho (10 mM) was prepared in DMSO. Attached cells were washed twice with PBS before adding the fluorescence probe at a final concentration of 10 µM in 1 mL deoxygenated HBSS. After hypoxic incubation at 37 °C for 30 min, they were subjected to X-ray irradiation for […] (0, 4, 8, 16 Gy), and fluorescence images were taken with a laser scanning confocal microscope (Nikon, Japan). Excitation wavelength was 488 nm, fluorescence emission window was 500-530 nm. For imaging quantification, all cells on the image were set as regions of interest, and fluorescence intensity was measured using Nikon imaging software (version 4.0).
(§8) Subsequent irradiation with 4, 8, and 16 Gy presented the appearance of green fluorescence from MeRho release (FIG. 16, right lanes), with fluorescence intensity positively correlated with radiation dose (FIG. 17).

HT1080-FAP cells = assay: as above; format: cell-based, Human; settings: 10 µM, hypoxic conditions, 30 minutes, no radiation
Protocol: as §7, §8

U87MG cells = assay: as above; format: cell-based; settings: 10 µM, hypoxic conditions, 30 minutes, no radiation
Protocol: as §7, §8

4T1-FAP tumors = assay: Radiation activation of NAPC-MeRho in tumors, fluorescence of tumor sections; format: in vivo, BALB/c mice; settings: 20 µL of 100 µM locally injected
Protocol: Then, when examining the reduction of NAPC-MeRho in tumor-bearing mice, 20 µL of 100 µM NAPC-MeRho in PBS was locally injected into 4T1-FAP tumors, and X-ray therapy of 4 Gy was administered 30 minutes post-injection. Due to limited green light penetration, tumors were harvested and quickly frozen, and fluorescence intensity was quantified via confocal imaging. […] Furthermore, the MeRho signal was statistically greater than the non-irradiated group (FIG. 19), providing conclusive evidence that radiation reduction reactions are feasible in vivo.

[7] = 10 µM, 20 Gy irradiation (control conditions)

## CCN(CC)c1ccc2cc(C(=O)OCc3cccc[n+]3C)c(=O)oc2c1 [Compound 9, (2-((7-(diethylamino)-2-oxo-2H-chromene-3-carbonyl)oxy)methyl)-1-methylpyridin-1-ium]
[1]; 60 Gy X-ray
  release efficiency (in words): high release efficiencies
  reactivity to radiation reduction: more reactive

## Cc1cc(=O)oc2cc(NC(=O)OCc3cc[n+](C)cc3)ccc12 [Compound 10]
[2]
  G (AMC release versus radiation dose): 145 nM/Gy
[3]
  additional activation versus previously reported structures in competition: 20-40%

## CCN(CC)c1ccc2cc(C(=O)OCc3ccnc4ccccc34)c(=O)oc2c1 [Compound 4, Quinolin-4-ylmethyl-7-(diethylamino)-2-oxo-2H-chromene-3-carboxylate]
[1]; 60 Gy X-ray
  reactivity to radiation reduction: more reactive

## CCN(CC)c1ccc2cc(C(=O)OCc3ccc4ccccc4n3)c(=O)oc2c1 [Compound 6, Quinolin-2-ylmethyl-7-(diethylamino)-2-oxo-2H-chromene-3-carboxylate]
[1]; 60 Gy X-ray
  reactivity to radiation reduction: more reactive

## CCN(CC)c1ccc2cc(C(=O)OCc3ccccn3)c(=O)oc2c1 [Compound 3, Pyridin-2-ylmethyl-7-(diethylamino)-2-oxo-2H-chromene-3-carboxylate]
[1]; 60 Gy X-ray
  reactivity to radiation reduction: more reactive

## CCN(CC)c1ccc2cc(C(=O)OCc3ccncc3)c(=O)oc2c1 [Compound 1, Pyridin-4-ylmethyl-7-(diethylamino)-2-oxo-2H-chromene-3-carboxylate]
[1]; 10 µM, 0.1% DMSO, PB 20 mM pH 7.4, deoxygenated, 60 Gy X-ray
  release efficiency (coumarin / 7-Deacca release): 33.5 ± 9.1%
[1]; 10 µM, 20 Gy + 10 mM HCO2Na
  coumarin release efficiency: 27.3%
[1]; 10 µM, 20 Gy + 10 mM KNO3
  coumarin release efficiency: 1.3%
[1]; [7]
  coumarin release efficiency: 16.7%
[1]; 10 µM in PB pH 7.4
  release efficiency in KNO3 solution relative to control: significantly reduced
[1]; from release efficiency at 60 Gy, 10 µM in PB pH 7.4
  release per radiation dose: 55.8 nM/Gy
[1]; 60 Gy X-ray
  reactivity to radiation reduction: more reactive

## COc1ccc2c(c1)Oc1cc(NC(=O)OCc3cc[n+](C)cc3)ccc1C21OC(=O)c2ccccc21 (stereo not shown) [NAPC-MeRho]
[4]
  G-value for MeRho release: 140 nM/Gy
[5]; 10 µM, 100 eq. VcNa, pH 7.4
  stability to reducing agent VcNa: highly stable
[5]; compared with result in sodium ascorbate solution
  stability in cysteine and γ-glutathione solutions: the same
[6]
  cell viability: greater than 95%
4T1-FAP cells; hypoxic conditions, 30 minutes, no radiation
  spontaneous release of MeRho: no spontaneous release of MeRho
4T1-FAP cells; 4 Gy radiation
  increase of fluorescence intensity: 14.4 fold
4T1-FAP cells; 8 Gy radiation
  increase of fluorescence intensity: 27.9 fold
4T1-FAP cells; 16 Gy radiation
  increase of fluorescence intensity: 54.5 fold
HT1080-FAP cells
  spontaneous release of MeRho: no spontaneous release of MeRho
U87MG cells
  spontaneous release of MeRho: no spontaneous release of MeRho
4T1-FAP tumors; 4 Gy X-ray 30 minutes post-injection
  fluorescence signal in tumor sections: significantly increased
4T1-FAP tumors; NAPC-MeRho only
  fluorescence signal in tumor sections: limited fluorescence signal

## CCN(CC)c1ccc2cc(C(=O)OCc3cc[n+](C)cc3)c(=O)oc2c1 [Compound 7, (4-((7-(diethylamino)-2-oxo-2H-chromene-3-carbonyl)oxy)methyl)-1-methylpyridin-1-ium]
[1]; 10 µM, 20 Gy + 10 mM HCO2Na
  coumarin release efficiency: 53.8%
[1]; 10 µM, 20 Gy + 10 mM KNO3
  coumarin release efficiency: 0.0%
[1]; [7]
  coumarin release efficiency: 27.6%
[1]; 10 mM HCOONa added, 10 µM in PB pH 7.4
  reduction yield on addition of HCOONa: approximately doubled
[1]; 10 µM in PB pH 7.4
  release efficiency in KNO3 solution relative to control: significantly reduced
[1]; 60 Gy X-ray
  release efficiency (in words): high release efficiencies
  reactivity to radiation reduction: more reactive
[1]; X-ray dose gradient 0 to 60 Gy, UPLC
  G-value (release of the reporter molecule): 140 nM/Gy
